Reference: DBAASP
≈ marks a conversion by molar mass, not a printed value.

Tests used:
Test in all cases: ≥ marks a high value that may be exact or a test limit, other limits are often not marked, values filed in µg/mL are converted to µM
[1] = test system: Klebsiella aerogenes ATCC 13048
[2] = test system: Acinetobacter baumannii ATCC 17978D-5
[3] = test system: Enterococcus faecium ATCC 700221
[4] = test system: Staphylococcus aureus ATCC 33591
[5] = test system: Staphylococcus epidermidis ATCC 51625
[6] = test system: Pseudomonas aeruginosa ATCC 27853
[7] = test system: Streptococcus pneumoniae ATCC 49619
[8] = test system: Pseudomonas aeruginosa ATCC 19660
[9] = test system: Staphylococcus haemolyticus MTCC 3383
[10] = test system: Klebsiella pneumoniae MTCC 7407
[11] = test system: Alcaligenes faecalis MTCC 1937
[12] = test system: Klebsiella aerogenes MTCC 111
[13] = test system: Stenotrophomonas maltophilia MTCC 1890
[14] = test system: Salmonella enterica MTCC 9844
[15] = test system: Enterococcus faecalis MTCC 439
[16] = test system: Vibrio cholerae MTCC 3904
[17] = test system: Acinetobacter baumannii MTCC 9829
[18] = test system: Escherichia coli K12 MG1655
[19] = test system: Proteus mirabilis MTCC 3158
[20] = test system: Klebsiella oxytoca MTCC 2275
[21] = test system: Pseudomonas aeruginosa MTCC 3542
[22] = test system: Salmonella enterica subsp. enterica serovar Typhimurium ATCC 14028
[23] = test system: Shigella flexneri MTCC 1457
[24] = test system: Proteus vulgaris MTCC 1771
[25] = test system: Pluralibacter gergoviae MTCC 3826
[26] = test system: Alkalihalobacillus alcalophilus MTCC 860
[27] = test system: Haemophilus influenzae MTCC 621
[28] = test system: Staphylococcus aureus MTCC 3160
[29] = test system: Bordetella bronchiseptica MTCC 6837
[30] = test system: Corynebacterium glutamicum MTCC 2679
[31] = test system: Shigella boydii MTCC 11947
[32] = test system: Citrobacter freundii MTCC 1658
[33] = test system: Citrobacter koseri MTCC 1657
[34] = test system: Achromobacter xylosoxidans
[35] = test system: Stenotrophomonas maltophilia
Pseudomonas aeruginosa = test system: Pseudomonas aeruginosa

MIC [1] [µM] | MIC [2] [µM] | MIC [3] [µM] | MIC [4] [µM] | MIC [5] [µM] | MIC [6] [µM] | MIC [7] [µM] | MIC [8] [µM] | Structure (SMILES) | MIC [9] [µM] | MIC [10] [µM] | MIC [11] [µM] | MIC [12] [µM] | MIC [13] [µM] | MIC [14] [µM] | MIC [15] [µM] | MIC [16] [µM] | MIC [17] [µM] | MIC [18] [µM] | MIC [19] [µM] | MIC [20] [µM] | also measured
21.1 (≈ 64 µg/mL) | 21.1 (≈ 64 µg/mL) | 21.1 (≈ 64 µg/mL) | 21.1 (≈ 64 µg/mL) | 21.1 (≈ 64 µg/mL) | > 21.1 | 21.1 (≈ 64 µg/mL) | 21.1 (≈ 64 µg/mL) | C[C@H](NC(=O)[C@H](Cc1ccccc1)NC(=O)[C@H](C)NC(=O)[C@@H](N)Cc1ccccc1)C(=O)N[C@@H](Cc1ccccc1)C(=O)N[C@@H](CCCCN)C(=O)N[C@@H](C)C(=O)N[C@@H](Cc1ccccc1)C(=O)N[C@@H](CCCCN)C(=O)N[C@@H](CCCCN)C(=O)N[C@@H](C)C(=O)N[C@@H](Cc1ccccc1)C(=O)N[C@@H](CCCCN)C(=O)N[C@@H](CCCCN)C(=O)N[C@@H](Cc1ccccc1)C(=O)N[C@@H](CCCCN)C(=O)N[C@@H](CCCCN)C(=O)N[C@@H](C)C(=O)N[C@@H](Cc1ccccc1)C(=O)N[C@@H](CCCCN)C(=O)N[C@@H](CCCCN)C(=O)N[C@@H](C)C(=O)N[C@@H](Cc1ccccc1)C(=O)NCC(=O)N1CCC[C@H]1C(=O)N[C@@H](CS)C(=O)O [FAFAFKAFKKAFKKFKKAFKKAFGPC] |  |  |  |  |  |  |  |  |  |  |  |  | 
 |  |  |  |  |  |  |  | CC[C@H](C)[C@H](NC(=O)[C@H](CCCCN)NC(=O)[C@H](Cc1ccccc1)NC(=O)[C@H](C)NC(=O)[C@H](C)NC(=O)[C@H](CCCCN)NC(=O)[C@@H](NC(=O)[C@H](CC(C)C)NC(=O)CNC(=O)[C@H](CCCCN)NC(=O)[C@H](Cc1c[nH]c2ccccc12)NC(=O)[C@@H](N)Cc1ccccc1)C(C)C)C(=O)N[C@H](C(=O)N[C@@H](Cc1cnc[nH]1)C(=O)N[C@@H](C)C(=O)NCC(=O)N[C@@H](CO)C(=O)O)C(C)C [FWKGLVKAAFKIVHAGS] | 8.61 (≈ 16 µg/mL) | ≥ 68.8 | ≥ 68.8 | ≥ 68.8 | ≥ 68.8 | ≥ 68.8 | ≥ 68.8 | ≥ 68.8 | 8.61 (≈ 16 µg/mL) | ≥ 34.4 | ≥ 68.8 | ≥ 34.4 | MIC [21]: ≥ 68.8 µM; MIC [22]: > 68.8 µM; MIC [23]: ≥ 68.8 µM; MIC [24]: ≥ 68.8 µM; MIC [25]: ≥ 68.8 µM; MIC [26]: 8.61 µM (≈ 16 µg/mL); MIC [27]: ≥ 68.8 µM; MIC [28]: ≥ 68.8 µM; MIC [29]: 4.3 µM (≈ 8 µg/mL); MIC [30]: 1.08 µM (≈ 2 µg/mL); MIC [31]: ≥ 68.8 µM; MIC [32]: ≥ 68.8 µM; MIC [33]: ≥ 34.4 µM
28.2 (≈ 64 µg/mL) | 28.2 (≈ 64 µg/mL) | 28.2 (≈ 64 µg/mL) | 28.2 (≈ 64 µg/mL) | 1.76 (≈ 4 µg/mL) | > 28.2 | 28.2 (≈ 64 µg/mL) | 28.2 (≈ 64 µg/mL) | CC[C@H](C)[C@H](NC(=O)[C@H](CCCCN)NC(=O)[C@H](C)NC(=O)[C@H](CCCN=C(N)N)NC(=O)[C@H](CC(C)C)NC(=O)[C@H](CCCN=C(N)N)NC(=O)[C@@H](NC(=O)[C@H](CCCCN)NC(=O)[C@@H](NC(=O)[C@H](CCCCN)NC(=O)[C@H](C)NC(=O)[C@H](CCCN=C(N)N)NC(=O)[C@H](CC(C)C)NC(=O)[C@H](CCCCN)NC(=O)[C@H](Cc1ccccc1)NC(=O)CNC(=O)[C@@H](N)CCSC)[C@@H](C)CC)C(C)C)C(=O)N[C@@H](CCCCN)C(=O)N[C@@H](CC(C)C)C(=O)O [MGFKLRAKIKVRLRAKIKL] |  |  |  |  |  |  |  |  |  |  |  |  | 
 |  |  |  |  |  |  |  | CC[C@H](C)[C@H](NC(=O)[C@H](CCCCN)NC(=O)[C@H](CCC(N)=O)NC(=O)CNC(=O)[C@@H](NC(=O)[C@H](CCCCN)NC(=O)[C@H](CCCCN)NC(=O)[C@H](CC(C)C)NC(=O)[C@H](CCCCN)NC(=O)[C@H](CCC(=O)O)NC(=O)[C@H](CCCCN)NC(=O)[C@@H](NC(=O)[C@H](CCCCN)NC(=O)[C@H](CC(N)=O)NC(=O)[C@H](CCCN=C(N)N)NC(=O)[C@H](Cc1ccccc1)NC(=O)[C@H](CCCCN)NC(=O)[C@H](CCCN=C(N)N)NC(=O)[C@H](CC(C)C)NC(=O)[C@H](CCCN=C(N)N)NC(=O)[C@H](CCCCN)NC(=O)[C@@H](N)CCCN=C(N)N)[C@@H](C)CC)[C@@H](C)CC)C(=O)O [RKRLRKFRNKIKEKLKKIGQKI] |  |  |  |  |  |  |  |  |  |  |  |  | MIC [34]: 2.01 µM (≈ 5.66 µg/mL); MIC [35]: 4.03 µM (≈ 11.3 µg/mL); MIC (Pseudomonas aeruginosa): 1.42 µM (≈ 4 µg/mL)
 |  |  |  |  |  |  |  | CC[C@H](C)[C@H](NC(=O)[C@H](Cc1cnc[nH]1)NC(=O)[C@H](Cc1cnc[nH]1)NC(=O)[C@@H](NC(=O)[C@@H](NC(=O)[C@H](CCCCN)NC(=O)[C@@H](NC(=O)[C@@H](NC(=O)[C@H](CCCCN)NC(=O)[C@H](Cc1cnc[nH]1)NC(=O)[C@H](Cc1ccccc1)NC(=O)[C@H](C)NC(=O)[C@H](CO)NC(=O)[C@H](CC(C)C)NC(=O)[C@@H](N)C(C)C)C(C)C)[C@@H](C)CC)[C@@H](C)CC)[C@@H](C)CC)C(=O)N[C@@H](CO)C(=O)N[C@@H](Cc1cnc[nH]1)C(=O)N[C@@H](Cc1ccccc1)C(=O)O [VLSAFHKVIKIIHHISHF] | 15 (≈ 32 µg/mL) | ≥ 60.2 | ≥ 60.2 | ≥ 60.2 | ≥ 60.2 | 15 (≈ 32 µg/mL) | ≥ 60.2 | ≥ 60.2 | 7.52 (≈ 16 µg/mL) | 15 (≈ 32 µg/mL) | ≥ 60.2 | ≥ 60.2 | MIC [21]: ≥ 60.2 µM; MIC [22]: > 60.2 µM; MIC [23]: 3.76 µM (≈ 8 µg/mL); MIC [24]: ≥ 60.2 µM; MIC [25]: ≥ 60.2 µM; MIC [26]: 15 µM (≈ 32 µg/mL); MIC [27]: 3.76 µM (≈ 8 µg/mL); MIC [28]: ≥ 60.2 µM; MIC [29]: 1.88 µM (≈ 4 µg/mL); MIC [30]: 1.88 µM (≈ 4 µg/mL); MIC [31]: 7.52 µM (≈ 16 µg/mL); MIC [32]: ≥ 60.2 µM; MIC [33]: 7.52 µM (≈ 16 µg/mL)
